Source: article PMC8121435, “Cork-in-bottle mechanism of inhibitor binding to mammalian complex I” (Science Advances, 2021)

Key:
[1] = target: T1, complex I in bacterial membranes (Paracoccus denitrificans, UniProt P29916+P29918+P29920); test: NADH oxidation in P. denitrificans bacterial membranes; assay type: biochemical; conditions: P. denitrificans membranes 20 μg ml−1
T1 construct: Complex I was purified from P. denitrificans strain Pd1222; endogenous in cells; host or cells: P. denitrificans strain Pd1222
Experimental: (§1) All catalytic activity assays were conducted at 32°C in 96-well plates using a Molecular Devices Spectramax 384 plus plate reader. Catalysis was initiated by addition of 200 μM NADH and monitored at 340 and 380 nm (ε340–380 = 4.81 mM^−1 cm^−1). Linear rates were measured for all assays, inhibitors were added from dimethyl sulfoxide stock solutions as required, and inhibitor-insensitive rates (using either 1 μM piericidin A or 1.4 μM IACS-2858) were subtracted from each measured rate. Membrane samples were prepared as described previously ([17], [20], [59], [60]), diluted to 20 μg ml^−1 in 10 mM tris-SO4 (pH 7.5) and 250 mM sucrose, and supplemented with 3 μM horse heart cytochrome c (except for P. denitrificans, for which the activity is unaffected by the addition). Mouse, bovine, and yeast (Y. lipolytica) complex I were purified as described previously ([17], [20], [59]); diluted to 0.5 nM in 20 mM tris-HCl (pH 7.5), 0.15% asolectin, and 0.15% CHAPS; and assayed using either 200 μM dQ or 200 μM ubiquinone-1 (Sigma-Aldrich). Complex I was purified from P. denitrificans strain Pd1222 ([61]) and provided by O. D. Jarman (MRC Mitochondrial Biology Unit, University of Cambridge); it was assayed likewise but in 10 mM MES-HCl (pH 6.5), 25 mM NaCl, and 2 mM CaCl2. […]

complex I in bovine SMPs [2] = target: T2, complex I in bovine SMPs (Bos taurus, UniProt P03887+P17694+P42026); test: Reverse electron transport (succinate oxidation-driven NAD+ reduction) in bovine heart submitochondrial particles; assay type: biochemical
T2 construct: Complex I from bovine heart were prepared; from tissue; host or cells: bovine heart mitochondria
Experimental: (§2) All catalytic activity assays were conducted at 32°C in 96-well plates using a Molecular Devices Spectramax 384 plus plate reader. Catalysis was initiated by addition of 200 μM NADH and monitored at 340 and 380 nm (ε340–380 = 4.81 mM^−1 cm^−1). Linear rates were measured for all assays, inhibitors were added from dimethyl sulfoxide stock solutions as required, and inhibitor-insensitive rates (using either 1 μM piericidin A or 1.4 μM IACS-2858) were subtracted from each measured rate. Membrane samples were prepared as described previously ([17], [20], [59], [60]), diluted to 20 μg ml^−1 in 10 mM tris-SO4 (pH 7.5) and 250 mM sucrose, and supplemented with 3 μM horse heart cytochrome c (except for P. denitrificans, for which the activity is unaffected by the addition). Mouse, bovine, and yeast (Y. lipolytica) complex I were purified as described previously ([17], [20], [59]); diluted to 0.5 nM in 20 mM tris-HCl (pH 7.5), 0.15% asolectin, and 0.15% CHAPS; and assayed using either 200 μM dQ or 200 μM ubiquinone-1 (Sigma-Aldrich). Complex I was purified from P. denitrificans strain Pd1222 ([61]) and provided by O. D. Jarman (MRC Mitochondrial Biology Unit, University of Cambridge); it was assayed likewise but in 10 mM MES-HCl (pH 6.5), 25 mM NaCl, and 2 mM CaCl2. Bovine SMPs were prepared as described previously ([61]) and diluted to 20 μg ml^−1 in 10 mM tris-SO4 (pH 7.5) and 250 mM sucrose for FET and RET assays. The RET assay was initiated using 1 mM NAD^+, 1 mM ATP, 10 mM succinate, 1 mM cyanide, and 2 mM MgSO4, in the absence of NADH. AOX from Trypanosoma brucei brucei was prepared as described previously ([23]). Complex I proteoliposomes were assayed using 10 mM Mops-KOH (pH 7.5), 50 mM KCl, and AOX (10 μg ml^−1).

H292 cells = system: H292 cells; set-up: method as in PMID 29892070; conditions: Leu55 ND1 mutation to Phe in H292 cells; cited from earlier work
bovine complex I = target: T3, bovine complex I (Bos taurus, UniProt P03887+P17694+P42026); test: NADH:decylubiquinone oxidoreduction by purified bovine complex I; assay type: biochemical; conditions: purified B. taurus complex I, dQ; ± SE
T3 construct: Complex I from bovine heart were prepared; from tissue; host or cells: bovine heart mitochondria
Experimental: as §1

[3] = system: human cell line models and representative cell lines from mammalian species; set-up: method as in PMID 29892070; conditions: mouse, monkey, dog and rat cell lines; cited from earlier work
complex I in bovine SMPs [4] = target: T2, complex I in bovine SMPs; test: Forward electron transport (NADH oxidation) in bovine heart submitochondrial particles; assay type: biochemical; conditions: NADH oxidation rate, ± SE
Experimental: as §1

mouse complex I = target: T4, mouse complex I (Mus musculus, UniProt P03888+Q91WD5+Q9DC70); test: NADH:decylubiquinone oxidoreduction by purified mouse complex I; assay type: biochemical
T4 construct: from tissue; host or cells: mouse (C57BL/6) heart mitochondria
Experimental: as §2

[5] = target: T5, yeast (Y. lipolytica) complex I (Yarrowia lipolytica, UniProt Q9B6E8+Q9UUT7+Q9UUU1); test: NADH:decylubiquinone oxidoreduction by purified Y. lipolytica complex I; assay type: biochemical
T5 sequence (Q9B6E8 1-341): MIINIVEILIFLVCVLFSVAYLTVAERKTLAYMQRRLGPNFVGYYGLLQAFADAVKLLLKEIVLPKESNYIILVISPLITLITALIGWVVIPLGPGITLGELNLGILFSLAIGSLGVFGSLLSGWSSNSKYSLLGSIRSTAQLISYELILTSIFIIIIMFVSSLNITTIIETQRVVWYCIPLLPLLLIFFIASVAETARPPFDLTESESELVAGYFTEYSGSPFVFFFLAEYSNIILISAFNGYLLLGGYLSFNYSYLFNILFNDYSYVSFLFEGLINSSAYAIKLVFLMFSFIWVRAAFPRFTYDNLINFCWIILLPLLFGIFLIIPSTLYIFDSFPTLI
T5 sequence (Q9UUU1 22-466): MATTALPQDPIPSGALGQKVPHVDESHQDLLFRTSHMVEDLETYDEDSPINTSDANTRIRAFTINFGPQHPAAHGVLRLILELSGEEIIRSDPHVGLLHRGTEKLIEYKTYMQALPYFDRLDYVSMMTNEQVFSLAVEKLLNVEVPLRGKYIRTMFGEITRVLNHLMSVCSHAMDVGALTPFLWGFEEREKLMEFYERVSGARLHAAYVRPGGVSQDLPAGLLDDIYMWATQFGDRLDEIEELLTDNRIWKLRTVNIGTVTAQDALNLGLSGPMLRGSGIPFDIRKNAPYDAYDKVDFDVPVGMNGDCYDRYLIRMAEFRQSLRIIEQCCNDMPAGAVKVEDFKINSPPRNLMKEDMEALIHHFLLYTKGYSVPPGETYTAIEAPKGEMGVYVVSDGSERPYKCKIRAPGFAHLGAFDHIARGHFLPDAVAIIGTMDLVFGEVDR
T5 sequence (Q9UUT7 28-210): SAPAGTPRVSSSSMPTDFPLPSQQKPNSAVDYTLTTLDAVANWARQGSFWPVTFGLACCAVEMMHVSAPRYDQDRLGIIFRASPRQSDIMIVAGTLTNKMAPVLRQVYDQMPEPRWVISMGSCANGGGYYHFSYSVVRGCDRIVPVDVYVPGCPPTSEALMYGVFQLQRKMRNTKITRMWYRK
Experimental: as §1

[6] = target: T6, complex I in mitochondrial membranes (Mus musculus, UniProt P03888+Q91WD5+Q9DC70); test: NADH oxidation in mouse mitochondrial membranes; assay type: biochemical; conditions: M. musculus membranes 20 μg ml−1; ± SE
T6 construct: from tissue; host or cells: mouse (C57BL/6) heart mitochondria
Experimental: as §1

[7] = target: T7, complex I in mitochondrial membranes (Yarrowia lipolytica, UniProt Q9B6E8+Q9UUT7+Q9UUU1); test: NADH oxidation in Y. lipolytica mitochondrial membranes; assay type: biochemical
T7 sequence (Q9B6E8 1-341): T5 sequence (Q9B6E8 1-341)
T7 sequence (Q9UUU1 22-466): T5 sequence (Q9UUU1 22-466)
T7 sequence (Q9UUT7 28-210): T5 sequence (Q9UUT7 28-210)
Experimental: as §1

[8] = target: T8, complex I in mitochondrial membranes (Bos taurus, UniProt P03887+P17694+P42026); test: NADH oxidation in bovine mitochondrial membranes; assay type: biochemical; conditions: B. taurus membranes 20 μg ml−1; ± SE
T8 construct: Complex I from bovine heart were prepared; from tissue; host or cells: bovine heart mitochondria
Experimental: as §1

[9] = target: T9, P. denitrificans complex I (Paracoccus denitrificans, UniProt P29916+P29918+P29920); test: NADH:decylubiquinone oxidoreduction by purified P. denitrificans complex I; assay type: biochemical; conditions: dQ, pH 6.5
T9 construct: Complex I was purified from P. denitrificans strain Pd1222; endogenous in cells; host or cells: P. denitrificans strain Pd1222
Experimental: as §1

human DHODH = system: human DHODH; set-up: method as in PMID 15044733, PMID 9313772; conditions: His-to-Ala mutation of the π-stacking partner; cited from earlier work

SMILES | IC50 [1] [µM] | IC50 (complex I in bovine SMPs [2]; bovine SMPs, succinate oxidation-driven NAD+ reduction rate, ± SE) [µM] | inhibition of RET favoured over FET (complex I in bovine SMPs [2]; bovine heart SMPs, RET versus FET) | loss of sensitivity (H292 cells) | IC50 (bovine complex I) [µM] | variation in IC50 across cell lines [3] | IC50 (complex I in bovine SMPs [4]) [µM] | higher IC50 value than IACS-2858 (mouse complex I) [fold] | IC50 (mouse complex I; purified mouse complex I ~0.5 nM, 200 μM dQ, 200 μM NADH, 32°C, Hill slope constrained to −1, ± SE) [µM] | IC50 [5] [µM] | IC50 [6] [µM] | IC50 [7] [µM] | IC50 [8] [µM] | IC50 [9] [µM] | reduction of sensitivity (human DHODH)
Cc1nc(-c2nc(-c3ccc(OC(F)(F)F)cc3)no2)nn1Cc1cccc(N2CCC(S(C)(=O)=O)CC2)c1 [IACS-010759] | ~1600 | 0.0123 ± 0.0006 | more than 25 fold | up to 70 fold | 0.739 ± 0.065 | up to 230 fold | 0.325 ± 0.025 | 17 | 0.0479 | 6.3 ± 0.8 | 0.0069 ± 0.0004 | ~170 | 0.113 ± 0.004 | ~22000 | 
Cc1c(-c2ccc(-c3ccccc3F)cc2)nc2ccc(F)cc2c1C(=O)O [brequinar] |  |  |  |  |  |  |  |  |  |  |  |  |  |  | more than 100 fold
